According to ChEMBL document CHEMBL3758072, “Amphiphilic nanoparticles of resveratrol-norcantharidin to enhance the toxicity in zebrafish embryo” (Bioorg Med Chem Lett, 2016):
Calls of active or inactive are those of the source. No cut-off for these calls is given here.

Columns and labels:
Danio rerio [1] = species on record: Danio rerio; assay: Cytotoxicity in zebrafish embryo assessed as survival rate at 10 ppm after 80 mins relative to control; format: functional
Danio rerio [2] = species on record: Danio rerio; assay: Cytotoxicity in zebrafish embryo assessed as survival rate at 25 ppm after 80 mins relative to control; format: functional
Danio rerio [3] = species on record: Danio rerio; assay: Cytotoxicity in zebrafish embryo assessed as survival rate at 50 ppm after 80 mins relative to control; format: functional
[4] = Drug accumulation in zebrafish embryo intestinal villi at 10 ppm incubated for 80 mins; format: ADME, Danio rerio; conditions: in vivo
[5] = Drug accumulation in zebrafish embryo skin at 10 ppm incubated for 80 mins; format: ADME, Danio rerio, Zone of skin; conditions: in vivo
[6] = Drug accumulation in zebrafish embryo muscle at 10 ppm incubated for 80 mins; format: ADME, Danio rerio, Muscle tissue; conditions: in vivo
[7] = Drug accumulation in zebrafish embryo stomach at 10 ppm incubated for 80 mins; format: ADME, tissue-based, Danio rerio; conditions: in vivo
Escherichia coli = assay: Antibacterial activity against Escherichia coli assessed as inhibition of microbial growth; format: functional, organism-based

| Structure (SMILES) | Survival (Danio rerio [1]) | Survival (Danio rerio [2]) | Survival (Danio rerio [3]) | Drug uptake [4] | Drug uptake [5] | Drug uptake [6] | Drug uptake [7] | growth inhibition (GI) (Escherichia coli) |
| --- | --- | --- | --- | --- | --- | --- | --- | --- |
| COC(=O)[C@H]1[C@@H](C(=O)Oc2ccc(/C=C/c3cc(O)cc(O)c3)cc2)[C@@H]2CC[C@H]1O2 | 99.2% | 99.2% | 95.8% |  |  |  |  |  |
| CCN(CC)c1ccc2c(-c3ccccc3C(=O)NCCNC(=O)[C@@H]3[C@H](C(=O)OC)[C@H]4CC[C@@H]3O4)c3ccc(=[N+](CC)CC)cc-3oc2c1 |  |  |  | Active | Not Active | Not Active | Active |  |
| O=C1OC(=O)C2C3CCC(O3)C12 (stereo unspecified) [DEMETHYL-CANTHARIDIN] | 99.2% | 96.7% | 90.8% |  |  |  |  | inactive |
